This note sets out measurements from patent US9403846B2, “Carbocyclic- and heterocyclic-substituted hexahydropyrano[3,4-d][1,3]thiazin-2-amine compounds” (Pfizer Inc., priority 2012, dated 2016).

The subject of experiment [1] is sAPPβ levels in H4 human neuroglioma cells over-expressing the wild-type human APP695. Put plainly: Whole Cell Assay (In Vitro sAPPb Assay). Type of experiment: cell-based. The conditions noted are these: Homo sapiens, 18 hours, geometric mean of 2-3 determinations (Ex. 2: ≧6 determinations).
The next experiment has as its target BACE2 enzyme (Homo sapiens (Human), UniProt Q9Y5Z0). Put plainly: BACE2 Assay (cell-free, fluorescence polarization). Particulars: single determination. Type of experiment: biochemical. On the procedure:
This assay measures the inhibition of the BACE2 enzyme as it cleaves a non-native peptide. A synthetic substrate that can be cleaved by BACE2 having N-terminal biotin and made fluorescent by the covalent attachment of Oregon Green at the Cys residue is used to assay BACE2 activity in the presence or absence of the inhibitory compounds. The substrate is Biotin-[…]-C(Oregon green)-KK-OH. The BACE2 enzyme is available from Enzo Life Sciences (Cat # BML-SE550). Compounds are incubated in a ½ log dose response curve from a top concentration of 100 μM with BACE2 enzyme and the biotinylated fluorescent peptide in 384-well black plates (Thermo Scientific #4318). BACE2 is at a final concentration of 2.5 nM with a final concentration of peptide substrate of 150 nM in a reaction volume of 30 μL assay buffer (100 mM sodium acetate, pH 4.5 (brought to pH with acetic acid), and 0.001% Tween-20). Plates are covered and incubated for 3 hours at 37° C. The reaction is stopped with the addition of 30 μL of 1.5 μM Streptavidin (Pierce, #21125). After a 10 minute incubation at room temperature, plates are read on a PerkinElmer EnVision for fluorescence polarization (Ex485 nm/Em530 nm). The activity of the beta-secretase enzyme is detected by changes in the fluorescence polarization that occur when the substrate is cleaved by the enzyme.
In general terms: Fluorescence polarisation rises when a labelled molecule tumbles more slowly, as on binding a larger partner.

In the next experiment the target is BACE1 enzyme (Homo sapiens (Human), UniProt P56817). Put plainly: BACE1 Cell-Free Assay (fluorescence polarization).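 Also: Affinity-purified soluble BACE1 from transfected CHO-K1 cells cleaving a biotinylated, Oregon Green-labelled synthetic APP peptide, 3 h at 37 °C, cleavage followed by fluorescence polarization change.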 Type of experiment: biochemical. Particulars: geometric mean of 2-3 determinations (Ex. 2: ≧6 determinations).

Structures can show the parent of a compound that is named as a salt.

BACE1 enzyme, sequence (P56817 46-457): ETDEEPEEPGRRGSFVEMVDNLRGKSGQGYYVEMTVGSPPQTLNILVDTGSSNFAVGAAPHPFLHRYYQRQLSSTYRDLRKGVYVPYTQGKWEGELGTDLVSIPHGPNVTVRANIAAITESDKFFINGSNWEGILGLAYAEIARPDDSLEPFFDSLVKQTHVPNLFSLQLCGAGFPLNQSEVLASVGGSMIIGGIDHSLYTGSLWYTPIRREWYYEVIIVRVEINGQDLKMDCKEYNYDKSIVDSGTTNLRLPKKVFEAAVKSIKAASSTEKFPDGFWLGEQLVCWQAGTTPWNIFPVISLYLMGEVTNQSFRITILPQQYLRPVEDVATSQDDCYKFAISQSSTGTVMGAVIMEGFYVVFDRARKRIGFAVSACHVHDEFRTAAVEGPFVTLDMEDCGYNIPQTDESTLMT
BACE2 enzyme, sequence (Q9Y5Z0 63-518): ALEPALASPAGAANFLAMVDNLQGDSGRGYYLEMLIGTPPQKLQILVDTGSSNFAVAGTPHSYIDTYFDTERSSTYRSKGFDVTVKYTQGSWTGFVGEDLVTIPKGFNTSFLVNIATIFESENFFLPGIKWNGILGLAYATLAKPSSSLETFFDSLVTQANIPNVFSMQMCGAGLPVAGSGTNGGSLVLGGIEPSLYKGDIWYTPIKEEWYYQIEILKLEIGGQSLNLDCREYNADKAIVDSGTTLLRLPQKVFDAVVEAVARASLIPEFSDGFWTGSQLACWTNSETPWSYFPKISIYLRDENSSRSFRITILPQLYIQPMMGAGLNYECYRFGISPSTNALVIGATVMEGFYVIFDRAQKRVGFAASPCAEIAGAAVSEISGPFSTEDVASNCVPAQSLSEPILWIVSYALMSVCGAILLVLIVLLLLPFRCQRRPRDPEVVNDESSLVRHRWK

Broadly, the IC50 is the midpoint of a concentration-inhibition curve. A higher IC50 goes with a need for much substance. Turning to `C[C@H]1SC(N)=N[C@@]2(c3ccc(F)cc3F)CO[C@@H](C3CC3)C[C@@H]12` [Example 3, (4R,4aR,6R,8aS)-6-Cyclopropyl-8a-(2,4-difluorophenyl)-4-methyl-4,4a,5,6,8,8a-hexahydropyrano[3,4-d][1,3]thiazin-2-amine, trifluoroacetate salt], the 50% inhibitory concentration (IC50) came out at 38.9 nM in experiment [1], 2490 nM on BACE2 enzyme and 337 nM on BACE1 enzyme.
